# Test results published in ChEMBL document CHEMBL3885881, “DrugMatrix”.
# Species on record: Rattus norvegicus
# Assay: DrugMatrix - Regimen: Daily Repeat
# Type: toxicity, organism-based, Sprague-Dawley
# Parameters: regimen Daily Repeat, gender Male, age 6-8 weeks
# Conditions: in vivo, po, route oral GAVAGE, vehicle 100 % WATER; for ABSOLUTE BASOPHIL / ABSOLUTE EOSINOPHIL / ABSOLUTE LYMPHOCYTE / ABSOLUTE MONOCYTE / ABSOLUTE SEGMENTED NEUTROPHIL / BASOPHIL / EOSINOPHIL / ERYTHROCYTE COUNT / HEMATOCRIT / HEMOGLOBIN / LEUKOCYTE COUNT / LYMPHOCYTE / MEAN CORPUSCULAR HEMOGLOBIN / MEAN CORPUSCULAR HEMOGLOBIN CONCENTRATION / MEAN CORPUSCULAR VOLUME / MONOCYTE / NEUTROPHIL / NUCLEATED RED BLOOD CELLS / PLATELET COUNT: tissue Blood; for ALANINE AMINOTRANSFERASE / ALBUMIN / ALKALINE PHOSPHATASE / ASPARTATE AMINOTRANSFERASE / BLOOD UREA NITROGEN / CARBON DIOXIDE / CHLORIDE / CHOLESTEROL / CREATINE PHOSPHOKINASE / CREATININE / GLUCOSE / LACTATE DEHYDROGENASE / LIPASE / PHOSPHORUS / POTASSIUM / SODIUM / TOTAL BILIRUBIN / TOTAL PROTEIN / URIC ACID: tissue Plasma
# [1] = 0 mg/kg, 72 h, dose level Control, time 3 day
# [2] = 0 mg/kg, 120 h, dose level Control, time 5 day
# [3] = 39 mg/kg, 72 h, dose level Low, time 3 day
compound,measurement,setting,value
C[C@]12Cc3c[nH]nc3C[C@@H]1CC[C@@H]1[C@@H]2CC[C@@]2(C)[C@H]1CC[C@]2(C)O [STANOZOLOL],ABSOLUTE BASOPHIL,[1],0 CELLS/uL
same,ABSOLUTE EOSINOPHIL,[1],32.5 CELLS/uL
same,ABSOLUTE LYMPHOCYTE,[1],9305.83 CELLS/uL
same,ABSOLUTE MONOCYTE,[1],43.83 CELLS/uL
same,ABSOLUTE SEGMENTED NEUTROPHIL,[1],817.83 CELLS/uL
same,BASOPHIL,[1],0%
same,EOSINOPHIL,[1],0.33%
same,ERYTHROCYTE COUNT,[1],5.38 x10E6/uL
same,HEMATOCRIT,[1],33.63%
same,HEMOGLOBIN,[1],13.17 G/DL
same,LEUKOCYTE COUNT,[1],10.2 x10E3/uL
same,LYMPHOCYTE,[1],91.17%
same,MEAN CORPUSCULAR HEMOGLOBIN,[1],24.5 pg
same,MEAN CORPUSCULAR HEMOGLOBIN CONCENTRATION,[1],39.13 G/DL
same,MEAN CORPUSCULAR VOLUME,[1],62.53 fL
same,MONOCYTE,[1],0.5%
same,NEUTROPHIL,[1],8%
same,NUCLEATED RED BLOOD CELLS,[1],0.17 /100WBC
same,PLATELET COUNT,[1],858 x10E3/uL
same,ALANINE AMINOTRANSFERASE,[1],55.67 u/L
same,ALBUMIN,[1],4.07 G/DL
same,ALKALINE PHOSPHATASE,[1],337 u/L
same,ASPARTATE AMINOTRANSFERASE,[1],84 u/L
same,BLOOD UREA NITROGEN,[1],13.17 mg/dL
same,CARBON DIOXIDE,[1],34.17 mmol/L
same,CHLORIDE,[1],99.33 MEQ/L
same,CHOLESTEROL,[1],78.83 mg/dL
same,CREATINE PHOSPHOKINASE,[1],576.83 u/L
same,CREATININE,[1],0.17 mg/dL
same,GLUCOSE,[1],152.67 mg/dL
same,LACTATE DEHYDROGENASE,[1],147.83 u/L
same,LIPASE,[1],9.5 u/L
same,PHOSPHORUS,[1],10.78 mg/dL
same,POTASSIUM,[1],6.34 MEQ/L
same,SODIUM,[1],144.12 MEQ/L
same,TOTAL BILIRUBIN,[1],0.18 mg/dL
same,TOTAL PROTEIN,[1],6.08 G/DL
same,URIC ACID,[1],0.65 mg/dL
same,ABSOLUTE BASOPHIL,[2],0 CELLS/uL
same,ABSOLUTE EOSINOPHIL,[2],31.17 CELLS/uL
same,ABSOLUTE LYMPHOCYTE,[2],7918.33 CELLS/uL
same,ABSOLUTE MONOCYTE,[2],58.33 CELLS/uL
same,ABSOLUTE SEGMENTED NEUTROPHIL,[2],725.5 CELLS/uL
same,BASOPHIL,[2],0%
same,EOSINOPHIL,[2],0.33%
same,ERYTHROCYTE COUNT,[2],5.32 x10E6/uL
same,HEMATOCRIT,[2],33.53%
same,HEMOGLOBIN,[2],13.17 G/DL
same,LEUKOCYTE COUNT,[2],8.73 x10E3/uL
same,LYMPHOCYTE,[2],90.33%
same,MEAN CORPUSCULAR HEMOGLOBIN,[2],24.82 pg
same,MEAN CORPUSCULAR HEMOGLOBIN CONCENTRATION,[2],39.33 G/DL
same,MEAN CORPUSCULAR VOLUME,[2],63.12 fL
same,MONOCYTE,[2],0.67%
same,NEUTROPHIL,[2],8.67%
same,NUCLEATED RED BLOOD CELLS,[2],0 /100WBC
same,PLATELET COUNT,[2],1144.83 x10E3/uL
same,ALANINE AMINOTRANSFERASE,[2],60.5 u/L
same,ALBUMIN,[2],3.97 G/DL
same,ALKALINE PHOSPHATASE,[2],343.17 u/L
same,ASPARTATE AMINOTRANSFERASE,[2],80.83 u/L
same,BLOOD UREA NITROGEN,[2],15 mg/dL
same,CARBON DIOXIDE,[2],31 mmol/L
same,CHLORIDE,[2],99.75 MEQ/L
same,CHOLESTEROL,[2],71.5 mg/dL
same,CREATINE PHOSPHOKINASE,[2],237.17 u/L
same,CREATININE,[2],0.17 mg/dL
same,GLUCOSE,[2],137 mg/dL
same,LACTATE DEHYDROGENASE,[2],146.17 u/L
same,LIPASE,[2],11.5 u/L
same,PHOSPHORUS,[2],10.13 mg/dL
same,POTASSIUM,[2],6 MEQ/L
same,SODIUM,[2],145 MEQ/L
same,TOTAL BILIRUBIN,[2],0.13 mg/dL
same,TOTAL PROTEIN,[2],5.82 G/DL
same,URIC ACID,[2],0.62 mg/dL
same,ABSOLUTE BASOPHIL,[3],0 CELLS/uL
same,ABSOLUTE EOSINOPHIL,[3],60.33 CELLS/uL
same,ABSOLUTE LYMPHOCYTE,[3],8653.33 CELLS/uL
same,ABSOLUTE MONOCYTE,[3],60.33 CELLS/uL
same,ABSOLUTE SEGMENTED NEUTROPHIL,[3],526 CELLS/uL
same,BASOPHIL,[3],0%
same,EOSINOPHIL,[3],0.67%
same,ERYTHROCYTE COUNT,[3],5.9 x10E6/uL
same,HEMATOCRIT,[3],35.57%
same,HEMOGLOBIN,[3],13.63 G/DL
same,LEUKOCYTE COUNT,[3],9.3 x10E3/uL
same,LYMPHOCYTE,[3],93.33%
same,MEAN CORPUSCULAR HEMOGLOBIN,[3],23.13 pg
same,MEAN CORPUSCULAR HEMOGLOBIN CONCENTRATION,[3],38.33 G/DL
same,MEAN CORPUSCULAR VOLUME,[3],60.33 fL
same,MONOCYTE,[3],0.67%
same,NEUTROPHIL,[3],5.33%
same,NUCLEATED RED BLOOD CELLS,[3],0 /100WBC
same,PLATELET COUNT,[3],1025.67 x10E3/uL
same,ALANINE AMINOTRANSFERASE,[3],58 u/L
same,ALBUMIN,[3],4.17 G/DL
same,ALKALINE PHOSPHATASE,[3],448.33 u/L
same,ASPARTATE AMINOTRANSFERASE,[3],81 u/L
same,BLOOD UREA NITROGEN,[3],13.67 mg/dL
same,CARBON DIOXIDE,[3],34.67 mmol/L
same,CHLORIDE,[3],99.33 MEQ/L
same,CHOLESTEROL,[3],57.33 mg/dL
same,CREATINE PHOSPHOKINASE,[3],465.67 u/L
same,CREATININE,[3],0.14 mg/dL
same,GLUCOSE,[3],134.67 mg/dL
same,LACTATE DEHYDROGENASE,[3],171.33 u/L
same,LIPASE,[3],9 u/L
same,PHOSPHORUS,[3],11.43 mg/dL
same,POTASSIUM,[3],6.05 MEQ/L
same,SODIUM,[3],145.03 MEQ/L
same,TOTAL BILIRUBIN,[3],0.2 mg/dL
same,TOTAL PROTEIN,[3],6.13 G/DL
same,URIC ACID,[3],0.6 mg/dL
